Experimental data: US20250268873A1, “COMBINATION OF DUAL ATM AND DNA-PK INHIBITORS AND IMMUNOTHERAPEUTIC AGENTS FOR USE IN CANCER THERAPY” (XRAD THERAPEUTICS, INC., priority 2021, published 2025)

Assays:
[1] = target: ATM (Homo sapiens (Human), UniProt Q13315); experiment: Pharmacodynamic assay, pKAP1/KAP1 in MDA-231 tumors; format: in vivo
Procedure: (§1) FADU or MDA-MB-231 cells were harvested during log phase growth for in vivo implantation. The resuspended cells were washed three times in phosphate buffered saline (PBS) before preparing the working dilution in PBS. FADU cells were diluted to 1×10^7 cells/mL and MDA-MB-231 cells were diluted to 5×10^7 cells/mL. Each mouse was injected subcutaneously in the right flank with 100 μL of the cellular suspension. Tumor growth was monitored until the tumors reached a target volume of at least 100 mm^3, at which point mice were randomly stratified into four treatment groups.
(§2) Tumor studies were performed as follows. Mice bearing FADU or MDA-231 tumors were pre-dosed with vehicle alone or compound 569 alone at 3, 6, and 10 mg/kg. Tumors were then irradiated with 10 Gy 45 min after vehicle or compound 569 administration or left unirradiated (vehicle and compound 569 at 10 mg/kg). Tumors were harvested 1 h post radiation.
(§3) Tissue homogenates for pharmacodynamic analyses were collected and processed as follows. Tumor tissues from FADU or MDA-MB-231 tumors were flash frozen in liquid nitrogen and pulverized on dry ice using a tissue pulverizer. A portion of the tumor powder was transferred into a microtube, followed by addition of 500 μL of RIPA buffer [[…], pH 8.0, 150 mM NaCl, 0.1% SDS, 0.5% sodium deoxycholate, 1% IGEPAL® CA-630 (Sigma, I8896)]. To 10 ml of RIPA buffer, 2 tablets each of Protease inhibitor and Phosphatase inhibitor (Roche, #04693159001 & #04906837001), 200 μL of 0.1 M PMSF and 160 μL of Aprotinin, (Sigma, A6279) were added. The suspension was homogenized on ice with a pellet pestle motor (KONTES) and incubated on ice for 30 minutes. Cell lysates were centrifuged at 13,200 rpm for 15 min at 4° C. and supernatants were transferred to a new tube and analyzed for protein concentration with a BCA kit (Pierce, 23227), followed by immunoblotting.

[2] = system: MCF7 cells; experiment: Clonogenic Survival Assay in MCF7 cells; format: cell-based, human; settings: for Fold 2 Gy / Fold 4 Gy: vs DMSO; for % survival @ 0 Gy w/out IR: no IR
Procedure: Human cancer cell lines, including MCF-7 human breast carcinoma cell line and A549 human lung carcinoma cell line, and HCT116 p53 wild-type and HCT116 p53−/− cell lines were obtained from ATCC. MCF7 and HCT116 cells were cultured in Dulbecco's modified Eagle's medium (DMEM (Gibco #11995-065). MDA-MB-231 human triple negative breast cancer cell line and FADU, human head and neck squamous cell carcinoma line, were obtained from Charles River Laboratories (Morrisville, NC). MDA-MB-231 and A549 cells were cultured in RPMI 1640 medium (Gibco, 11875-093). FADU cells were cultured in Minimum Essential Medium α (MEM α) (Gibco, 12571-063) supplemented with 1 mM Sodium Pyruvate (Gibco, 11360-070), 1×MEM Non-Essential Amino Acids (Gibco, 11140-050). All cell lines were supplemented with 10% fetal bovine serum (FBS) (Corning, 35-010-CV) and 1× Antibiotic-Antimycotic (Gibco #15240-062) and were grown at 37° C. in 5% CO2. All cell lines were authenticated by short tandem repeat profiling and tested negative for mycoplasma.
This assay was performed with Compound 569 as an exemplary Formula (I) compound. Cells were plated in 6-well plates at different densities: 250 cells for no IR control, 5000 cells for 2 Gy of IR and 10000 cells for 4 Gy of IR and cultured overnight. The next day, MCF7 cells were preincubated with compound 569 at 100, 250, 500, or 1000 nM or DMSO for 30 min before being exposed to increasing doses of IR (0, 2, or 4 Gy). The A549 cells were incubated with Compound 569 at 500 or 1000 nM or with DMSO for 30 min before being exposed to increasing doses of IR (0, 2, or 4 Gy). After IR, cells were continuously incubated with DMSO or compound 569 for 5 h before the culture medium was removed and cells were washed with PBS. Cells were cultured in complete medium in the absence of inhibitor for 9 days. Then cells were stained (PBS, […], 0.1% crystal violet) rinsed with water and dried.

[3] = target: mTOR (Homo sapiens, UniProt P42345); experiment: mTOR Biochemical Assay (LanthaScreen TR-FRET); settings: ATP 3 μM
Procedure: mTOR Kinase reactions were performed in a 10 μL volume in low-volume 384-well plates. Typically, PerkinElmer model 6008260 plates were used. The composition of the 1× kinase reaction buffer was: 50 mM HEPES pH 7.5, 0.01% Tween 20, 1 mM EGTA, 10 mM MnCl2, and 2 mM DTT. The solution of mTOR enzyme (ThermoFisher, #PR8683B; the final mTOR concentration: 0.5 μg/mL) was added, and the compounds were serially diluted to the final maximal concentration of 100 nM (3 fold series dilution, a total of 10 doses). GFP-4E-BP1 (the final concentration: 0.4 μM) and the ATP solution (the final ATP concentration: 3 μM) were added to the 384-well plate. The plate was incubated at 25° C. for 1 hour, and 10 μL of the EDTA solution (20 mM) and Tb-labeled anti-p4E-BP1 antibody (4 nM) in TR-FRET dilution buffer were added to each well. The plate was sealed, incubated 30 min at 25° C., and read on a plate reader configured for LanthaScreen™ TRFRET.

[4] = target: DNA-PK (Homo sapiens (Human), UniProt P78527); experiment: Pharmacodynamic assay, pDNA-PK/DNA-PK in MDA-231 tumors; format: in vivo
Procedure: as §1, §2, §3

ATM, sequence (Q13315 whole entry): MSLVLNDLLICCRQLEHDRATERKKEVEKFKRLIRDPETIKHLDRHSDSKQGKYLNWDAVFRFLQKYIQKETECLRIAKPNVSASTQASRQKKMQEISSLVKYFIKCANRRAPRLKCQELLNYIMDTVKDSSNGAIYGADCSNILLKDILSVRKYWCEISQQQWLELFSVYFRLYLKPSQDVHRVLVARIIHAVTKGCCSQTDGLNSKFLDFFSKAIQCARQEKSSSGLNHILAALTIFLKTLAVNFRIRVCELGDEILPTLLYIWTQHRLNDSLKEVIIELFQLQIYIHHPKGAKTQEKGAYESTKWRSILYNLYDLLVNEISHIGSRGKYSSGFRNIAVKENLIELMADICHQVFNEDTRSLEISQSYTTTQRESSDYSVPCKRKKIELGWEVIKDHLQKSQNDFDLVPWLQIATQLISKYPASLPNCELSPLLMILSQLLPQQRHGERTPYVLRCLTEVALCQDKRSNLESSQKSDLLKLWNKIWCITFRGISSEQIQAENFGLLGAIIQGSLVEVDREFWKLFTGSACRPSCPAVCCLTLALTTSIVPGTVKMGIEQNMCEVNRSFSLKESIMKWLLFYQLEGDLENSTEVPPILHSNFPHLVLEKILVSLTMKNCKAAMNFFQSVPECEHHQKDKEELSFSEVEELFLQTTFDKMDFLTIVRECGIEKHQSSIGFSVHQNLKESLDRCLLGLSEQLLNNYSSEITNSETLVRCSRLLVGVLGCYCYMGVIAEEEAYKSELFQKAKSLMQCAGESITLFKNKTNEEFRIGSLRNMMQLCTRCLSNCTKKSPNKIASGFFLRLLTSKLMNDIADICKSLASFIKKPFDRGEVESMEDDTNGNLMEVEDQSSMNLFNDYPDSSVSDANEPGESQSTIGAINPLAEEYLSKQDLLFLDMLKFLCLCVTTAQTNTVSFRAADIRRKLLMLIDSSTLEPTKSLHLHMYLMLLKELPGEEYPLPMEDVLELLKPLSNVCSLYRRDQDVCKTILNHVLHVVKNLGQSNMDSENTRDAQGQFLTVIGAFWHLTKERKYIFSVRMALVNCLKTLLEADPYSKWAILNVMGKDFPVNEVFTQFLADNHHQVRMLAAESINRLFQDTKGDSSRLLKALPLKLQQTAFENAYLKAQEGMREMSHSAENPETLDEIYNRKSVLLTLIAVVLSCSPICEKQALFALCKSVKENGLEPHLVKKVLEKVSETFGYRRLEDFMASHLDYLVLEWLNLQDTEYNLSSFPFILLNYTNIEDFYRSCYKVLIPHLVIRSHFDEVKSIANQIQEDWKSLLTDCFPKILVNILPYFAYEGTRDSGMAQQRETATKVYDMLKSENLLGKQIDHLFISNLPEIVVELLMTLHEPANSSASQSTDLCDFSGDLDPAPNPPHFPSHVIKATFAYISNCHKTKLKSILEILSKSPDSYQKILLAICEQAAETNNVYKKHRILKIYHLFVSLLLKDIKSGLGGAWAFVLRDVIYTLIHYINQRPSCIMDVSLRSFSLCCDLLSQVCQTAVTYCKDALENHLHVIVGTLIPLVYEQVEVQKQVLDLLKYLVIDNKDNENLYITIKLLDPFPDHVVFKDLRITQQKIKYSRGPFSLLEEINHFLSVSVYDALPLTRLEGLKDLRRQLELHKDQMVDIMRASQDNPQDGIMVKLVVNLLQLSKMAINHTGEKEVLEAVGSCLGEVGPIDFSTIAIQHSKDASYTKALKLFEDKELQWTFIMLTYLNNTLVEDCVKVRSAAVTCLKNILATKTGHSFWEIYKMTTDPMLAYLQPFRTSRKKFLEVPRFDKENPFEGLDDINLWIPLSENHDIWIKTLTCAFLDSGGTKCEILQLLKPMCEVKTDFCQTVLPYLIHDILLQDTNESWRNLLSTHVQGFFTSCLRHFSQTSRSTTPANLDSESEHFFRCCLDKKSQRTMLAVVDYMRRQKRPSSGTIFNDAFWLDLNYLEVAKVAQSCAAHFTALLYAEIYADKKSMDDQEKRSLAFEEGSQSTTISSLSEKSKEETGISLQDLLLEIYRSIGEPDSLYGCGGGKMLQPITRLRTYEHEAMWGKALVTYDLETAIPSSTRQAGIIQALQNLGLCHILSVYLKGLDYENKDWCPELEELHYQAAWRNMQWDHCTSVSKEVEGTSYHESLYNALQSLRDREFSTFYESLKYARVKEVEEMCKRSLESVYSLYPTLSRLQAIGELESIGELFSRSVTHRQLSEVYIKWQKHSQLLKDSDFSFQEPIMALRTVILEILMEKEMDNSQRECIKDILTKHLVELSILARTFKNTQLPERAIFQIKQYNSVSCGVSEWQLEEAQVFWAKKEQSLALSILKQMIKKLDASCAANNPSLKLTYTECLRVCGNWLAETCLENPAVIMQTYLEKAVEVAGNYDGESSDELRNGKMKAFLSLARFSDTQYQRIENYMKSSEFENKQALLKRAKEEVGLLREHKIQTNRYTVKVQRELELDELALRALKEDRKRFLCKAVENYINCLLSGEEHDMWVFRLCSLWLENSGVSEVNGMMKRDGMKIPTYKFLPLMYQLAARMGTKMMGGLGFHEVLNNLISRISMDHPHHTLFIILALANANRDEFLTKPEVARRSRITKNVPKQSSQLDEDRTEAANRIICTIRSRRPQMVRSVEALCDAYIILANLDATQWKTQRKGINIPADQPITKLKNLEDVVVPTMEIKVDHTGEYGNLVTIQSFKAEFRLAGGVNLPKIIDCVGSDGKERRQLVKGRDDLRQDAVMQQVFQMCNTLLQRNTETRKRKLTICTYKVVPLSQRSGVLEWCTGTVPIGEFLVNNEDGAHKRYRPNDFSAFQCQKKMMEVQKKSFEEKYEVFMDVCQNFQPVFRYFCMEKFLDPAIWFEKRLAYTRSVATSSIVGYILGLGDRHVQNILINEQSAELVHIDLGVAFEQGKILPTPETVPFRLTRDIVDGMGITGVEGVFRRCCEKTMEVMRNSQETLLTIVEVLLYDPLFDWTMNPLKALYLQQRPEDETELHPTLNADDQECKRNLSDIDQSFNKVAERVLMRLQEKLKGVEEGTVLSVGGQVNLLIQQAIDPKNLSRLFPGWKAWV

Question: For `CC(C)NCCOc1ncc(-c2cc3c4c(cnc3cc2F)N(C)C(=O)C42CCC2)cc1NS(C)(=O)=O` [Compound 569, N-(5-(7′-Fluoro-3′-methyl-2′-oxo-2′,3′-dihydrospiro[cyclobutane-1,1′-pyrrolo[2,3-c]quinolin]-8′-yl)-2-(2-(isopropylamino)ethoxy)pyridin-3-yl)methanesulfonamide], which pKAP1/KAP1 ([1]; 10 Gy, 3 mg/kg oral) is on record?
Answer: Its pKAP1/KAP1 is 0.327.

Question: What about the pKAP1/KAP1 ([1]; 10 Gy, 6 mg/kg oral) of the same molecule?
Answer: The pKAP1/KAP1 was 0.0130.

Question: And the pKAP1/KAP1 ([1]; 10 Gy, 10 mg/kg oral)?
Answer: The pKAP1/KAP1 was 0.00901.

Question: What about the pKAP1/KAP1 ([1]; no radiation, 10 mg/kg oral) of the same molecule?
Answer: Its pKAP1/KAP1 is −0.00319.

Question: What about the “cellular toxicity in the absence of IR” value ([2]; 5-h exposure) of the same molecule?
Answer: Its value is “without evidence of cellular toxicity”.

Question: And the radiosensitization ([2]; 5-h exposure, 100-1000 nM, 0, 2, 4 Gy)?
Answer: Its radiosensitization is “significant degree of radiosensitization”.

Question: What about the “Clonogenic survival ratio 0 Gy” value ([2]; 569 100 nM) of the same molecule?
Answer: The value was 1.000.

Question: And the “Clonogenic survival ratio 2 Gy” value ([2]; 569 100 nM)?
Answer: Its value is 0.0882.

Question: And the “Fold 2 Gy” value ([2]; 569 100 nM)?
Answer: The value was 7.5.

Question: What about the “Clonogenic survival ratio 4 Gy” value ([2]; 569 100 nM) of the same molecule?
Answer: The value was 0.0146.

Question: And the “Fold 4 Gy” value ([2]; 569 100 nM)?
Answer: Its value is 21.8.

Question: What about the “% survival @ 0 Gy w/out IR” value ([2]; 569 100 nM) of the same molecule?
Answer: Its value is 92%.

Question: What about the “Clonogenic survival ratio 0 Gy” value ([2]; 569 250 nM) of the same molecule?
Answer: The value was 1.000.

Question: And the “Clonogenic survival ratio 2 Gy” value ([2]; 569 250 nM)?
Answer: Its value is 0.0610.

Question: And the “Fold 2 Gy” value ([2]; 569 250 nM)?
Answer: The value was 10.8.

Question: And the “Clonogenic survival ratio 4 Gy” value ([2]; 569 250 nM)?
Answer: The value was 0.00588.

Question: What about the “Fold 4 Gy” value ([2]; 569 250 nM) of the same molecule?
Answer: Its value is 54.0.

Question: What about the “% survival @ 0 Gy w/out IR” value ([2]; 569 250 nM) of the same molecule?
Answer: The value was 97%.

Question: What about the “Clonogenic survival ratio 0 Gy” value ([2]; 569 500 nM) of the same molecule?
Answer: The value was 1.000.

Question: And the “Clonogenic survival ratio 2 Gy” value ([2]; 569 500 nM)?
Answer: The value was 0.0451.

Question: And the “Fold 2 Gy” value ([2]; 569 500 nM)?
Answer: Its value is 14.7.

Question: And the “Clonogenic survival ratio 4 Gy” value ([2]; 569 500 nM)?
Answer: The value was 0.00347.

Question: And the “Fold 4 Gy” value ([2]; 569 500 nM)?
Answer: The value was 91.5.

Question: What about the “% survival @ 0 Gy w/out IR” value ([2]; 569 500 nM) of the same molecule?
Answer: The value was 105%.

Question: What about the “Clonogenic survival ratio 0 Gy” value ([2]; 569 1000 nM) of the same molecule?
Answer: Its value is 1.000.

Question: What about the “Clonogenic survival ratio 2 Gy” value ([2]; 569 1000 nM) of the same molecule?
Answer: The value was 0.0301.

Question: And the “Fold 2 Gy” value ([2]; 569 1000 nM)?
Answer: The value was 22.0.

Question: And the “Clonogenic survival ratio 4 Gy” value ([2]; 569 1000 nM)?
Answer: Its value is 0.0016.

Question: What about the “Fold 4 Gy” value ([2]; 569 1000 nM) of the same molecule?
Answer: The value was 198.

Question: And the “% survival @ 0 Gy w/out IR” value ([2]; 569 1000 nM)?
Answer: The value was 100%.

Question: What about the IC50 [3] of the same molecule?
Answer: Its IC50 is greater than 100 nM.

Question: And the pDNA-PK/DNA-PK ([4]; 10 Gy, 3 mg/kg oral)?
Answer: The pDNA-PK/DNA-PK was 0.889.

Question: What about the pDNA-PK/DNA-PK ([4]; 10 Gy, 6 mg/kg oral) of the same molecule?
Answer: Its pDNA-PK/DNA-PK is 0.670.

Question: And the pDNA-PK/DNA-PK ([4]; 10 Gy, 10 mg/kg oral)?
Answer: The pDNA-PK/DNA-PK was 0.454.

Question: What about the pDNA-PK/DNA-PK ([4]; no radiation, 10 mg/kg oral) of the same molecule?
Answer: Its pDNA-PK/DNA-PK is 0.223.
